25 molecules from US8940739B2, “Compound of a reverse-turn mimetic and a production method and use therefor” (JW Pharmaceutical Corporation, priority 2010, dated 2015) can be followed below.

SMILES strings stand for the structures. A value given as a limit tells only on which side of the number the result lay.

The test system of data set [1] is MV-4-11 (human, Acute Myeloid Leukemia cell line) cells. The data set is described as follows: Cell growth inhibition assay, GI50 of MV-4-11. As to conditions: Homo sapiens, MV4-11, 72 h, MV-4-11 cells. The format is cell-based. In outline: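 GI50 derived from 490 nm absorbance using CellTiter 96 Aqueous One reagent, with compound-free medium providing the background. Human AML MV-4-11 cells, seeded at 5×10^4 per well in IMDM/10% FBS, incubated 72 h at 37 °C with duplicate serial dilutions of test compound.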

Data set [2] deals with cDNA-expressed human hepatic CYP3A4 (Homo sapiens (Human), UniProt P08684). Nature of the data set: Measurement of CYP (IC50 of P450 CYP3A4), BFC substrate. The format is in vitro ADME. As to conditions: 20 minutes. The essentials:
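cDNA-expressed human CYP3A4 supersomes in 0.1M potassium phosphate pH 7.4 with 8.3 mM MgCl2, 1.67 mM EDTA and 0.25 mM NADPH; compounds in acetonitrile (<1% final). Reaction started with 30 µM BFC, 20 min at 37. 7-Hydroxy-4-trifluoromethyl-coumarin read by fluorescence (ex 409/em 530 nm).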

A short description of data set [3]: MLM, hepatic metabolic stability. The format is in vitro ADME. As to conditions: mouse hepatic microsome, amount at 30 minutes compared with 0 minutes. Here is the method: For the sake of retaining efficacy of novel drugs and preventing side-effects, hepatic metabolic stability is regarded as very important. Hepatic metabolic stability is typically determined using microsome or S9. In the present test, a microsome having CYP450 as a main component, which plays a great role in metabolism, was used to evaluate the metabolic stability.
This assay was performed in a 200 l volume in a 13 ml glass tube using mouse hepatic microsome whose activity was measured.
The compounds of Examples 1 to 5 were dissolved in DMSO (dimethyl sulfoxide) to prepare a 25 mM stock solution, which was then diluted with 50% acetonitrile and used in the test. A potassium phosphate buffer (pH 7.4, final concentration 0.1M), MgCl2 (final concentration 0.1M), a diluted inventive compound stock solution (final concentration 1 mM), and a mouse microsome (final concentration 5 mg/ml) were added to the glass tube. The reaction was initiated by the addition of a cofactor NADPH (final concentration 12.5 mM) after pre-incubation at 37 for 3 minutes. The reaction was carried out at 37 for 10 minutes and 30 minutes, and then terminated with 1000 μl of acetonitrile, and the remaining inventive compound was extracted. The centrifugation was conducted at 3000 rpm for 10 minutes, after which the supernatant was dried and dissolved again in 150 μl of 50% acetonitrile and quantitatively analyzed by HPLC. 0 minutes and 30 minutes after reaction, the amounts of the compounds of the present invention were compared thus evaluating the extent of metabolic stability.

Sequence of cDNA-expressed human hepatic CYP3A4 (P08684 whole entry): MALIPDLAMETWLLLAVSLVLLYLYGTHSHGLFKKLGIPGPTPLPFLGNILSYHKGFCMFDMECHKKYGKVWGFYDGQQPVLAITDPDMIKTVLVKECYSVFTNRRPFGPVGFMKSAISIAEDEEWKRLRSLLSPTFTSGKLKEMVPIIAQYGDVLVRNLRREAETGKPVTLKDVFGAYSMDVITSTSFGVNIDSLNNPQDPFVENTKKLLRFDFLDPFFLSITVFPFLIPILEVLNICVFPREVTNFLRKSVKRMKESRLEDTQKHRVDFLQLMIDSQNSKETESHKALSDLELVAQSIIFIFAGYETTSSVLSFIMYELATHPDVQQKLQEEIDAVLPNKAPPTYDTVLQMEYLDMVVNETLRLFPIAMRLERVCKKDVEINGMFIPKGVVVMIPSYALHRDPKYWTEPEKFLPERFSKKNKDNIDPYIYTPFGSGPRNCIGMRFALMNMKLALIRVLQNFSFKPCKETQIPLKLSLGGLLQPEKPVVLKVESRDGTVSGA

What is called GI50 is the concentration giving 50% growth inhibition. A higher GI50 goes with lower sensitivity of the cells. Broadly, the IC50 is the concentration that gives 50% inhibition. Take `C=CCN1CC(=O)N2[C@@H](Cc3ccc(O)cc3)C(=O)N(Cc3cccc4c(-c5ccc(NC(=O)Nc6ccc(OC)nc6)cc5)cn(C)c34)C[C@@H]2N1C(=O)NCc1ccccc1` [Compound B, (6S,9aS)-2-allyl-N-benzyl-6-(4-hydroxybenzyl)-8-((3-(4-(3-(6-methoxypyridin-3-yl)ureido)phenyl)-1-methyl-1H-indol-7-yl)methyl)-4,7-dioxooctahydro-1H-pyrazino[2,1-c][1,2,4]-triazine-1-carboxamide]: the GI50 in data set [1] came to 6.5 nM. Also, the IC50 in data set [2] is over 25000 nM. The “MLM (%)” value in data set [3] is 65%.
Taken in the same sequence, the figures for `C=CCN1CC(=O)N2[C@@H](Cc3ccc(O)cc3)C(=O)N(Cc3cccc4c(-c5ccc(NC(=O)Nc6ccccc6)nc5)cn(C)c34)C[C@@H]2N1C(=O)NCc1ccccc1` [Compound C, (6S,9aS)-2-allyl-N-benzyl-6-(4-hydroxybenzyl)-8-((1-methyl-3-(6-(3-phenylureido)pyridine-3-yl)-1H-indol-7-yl)methyl)-4,7-dioxooctahydro-1H-pyrazino[2,1-c][1,2,4]-triazine-1-carboxamide] were 9.5 nM, over 25000 nM and 64%.
Taken in the same sequence, the figures for `C=CCN1CC(=O)N2[C@@H](Cc3ccc(O)cc3)C(=O)N(Cc3cccc4c(-c5ccc(C(=O)Nc6ccc(N7CCN(C(C)=O)CC7)cc6)cc5)cn(C)c34)C[C@@H]2N1C(=O)NCc1ccccc1` [Compound D-10] were 1.3 nM, over 25000 nM and 88%.
Taken in the same sequence, the figures for `C=CCN1CC(=O)N2[C@@H](Cc3ccc(O)cc3)C(=O)N(Cc3cccc4c(-c5ccc(C(=O)NC6CCC(NC(=O)OC(C)(C)C)CC6)cc5)cn(C)c34)C[C@@H]2N1C(=O)NCc1ccccc1` (stereo partly drawn) [Compound D-31] were 1.5 nM, over 25000 nM and 107%.
In data set [1], `C=CCN1CC(=O)N2[C@@H](Cc3ccc(O)cc3)C(=O)N(Cc3cccc4c(-c5ccc(C(=O)NN6CCN(C)CC6)cc5)cn(C)c34)C[C@@H]2N1C(=O)NCc1ccccc1` [Compound D-45] yielded a GI50 of 1.9 nM. The molecule further showed a concentration for half-maximal inhibition (IC50) in data set [2] of 2510 nM. Moreover, the “MLM (%)” value in data set [3] is 49.4%.
For the molecule `C=CCN1CC(=O)N2[C@@H](Cc3ccc(O)cc3)C(=O)N(Cc3cccc4c(-c5ccc(NC(=O)c6ccc(N)nc6)cc5)cn(C)c34)C[C@@H]2N1C(=O)NCc1ccccc1` [Compound D-69], in data set [1], it took 1.1 nM to inhibit growth by half (GI50). In addition, the IC50 in data set [2] is over 25000 nM. Besides, in data set [3], the “MLM (%)” value was found to be 65%.
In the same order, the values of `C=CCN1CC(=O)N2[C@@H](Cc3ccc(O)cc3)C(=O)N(Cc3cccc4c(-c5ccc(NC(=O)Nc6ccccc6)cc5)cn(C)c34)C[C@@H]2N1C(=O)NCc1ccccc1` [Compound D-73] are 14.4 nM, over 25000 nM and 73.4%.
Taken in the same sequence, the figures for `C=CCN1CC(=O)N2[C@@H](Cc3ccc(O)cc3)C(=O)N(Cc3cccc4c(-c5ccc(NC(=O)NC6CCCCC6)cc5)cn(C)c34)C[C@@H]2N1C(=O)NCc1ccccc1` [Compound D-74] were 11.2 nM, over 25000 nM and 56.9%.
As for `C=CCN1CC(=O)N2[C@@H](Cc3ccc(O)cc3)C(=O)N(Cc3cccc4c(-c5ccc(NC(=O)Nc6ccc(OC)nc6)cc5)cn(C)c34)C[C@@H]2N1C(=O)NCc1ccccc1` [Compound D-77], in data set [1], it took 6.5 nM to inhibit growth by half (GI50). The IC50 in data set [2] is over 25000 nM. Also, the “MLM (%)” value in data set [3] came out at 65.4%.
Taken in the same sequence, the figures for `C=CCN1CC(=O)N2[C@@H](Cc3ccc(O)cc3)C(=O)N(Cc3cccc4c(-c5ccc(NC(=O)Nc6ccccc6)nc5)cn(C)c34)C[C@@H]2N1C(=O)NCc1ccccc1` [Compound D-85] were 9.5 nM, over 25000 nM and 64.3%.
In the same order, the values of `C=CCN1CC(=O)N2[C@@H](Cc3ccc(O)cc3)C(=O)N(Cc3cccc4c(-c5ccc(NC(=O)NCc6ccccc6)nc5)cn(C)c34)C[C@@H]2N1C(=O)NCc1ccccc1` [Compound D-93] are 16.1 nM, 20400 nM and 68.5%.
The molecule `C=CCN1CC(=O)N2[C@@H](Cc3ccc(O)cc3)C(=O)N(Cc3cccc4c(C(=O)N5CCN(CCCN(C)C)CC5)cn(C)c34)C[C@@H]2N1C(=O)NCc1ccccc1` [Compound E-13] registered an IC50 in data set [2] of over 25000 nM. Also, the “MLM (%)” value in data set [3] came to 89.1%.
Taken in the same sequence, the figures for `C=CCN1CC(=O)N2[C@@H](Cc3ccc(O)cc3)C(=O)N(Cc3cccc4c(C(=O)N5CCC(N6CCN(C)CC6)CC5)cn(C)c34)C[C@@H]2N1C(=O)NCc1ccccc1` [Compound E-19] were over 25000 nM and 73.4%.
Taken in the same sequence, the figures for `C=CCN1CC(=O)N2[C@@H](Cc3ccc(O)cc3)C(=O)N(Cc3cccc4c(C(=O)N5CCN(CC6CCNCC6)CC5)cn(C)c34)C[C@@H]2N1C(=O)NCc1ccccc1` [Compound E-23] were 8170 nM and 73.8%.
In the same order, the values of `C=CCN1CC(=O)N2[C@@H](Cc3ccc(O)cc3)C(=O)N(Cc3cccc4c(C(=O)N5CCC(NC(=O)c6ccc(N(C)C)cc6)CC5)cn(C)c34)C[C@@H]2N1C(=O)NCc1ccccc1` [Compound E-59] are over 25000 nM and 58.5%.
In data set [2], `C=CCN1CC(=O)N2[C@@H](Cc3ccc(O)cc3)C(=O)N(Cc3cccc4c(C(=O)N5CC(N6CCN(C)CC6)C5)cn(C)c34)C[C@@H]2N1C(=O)NCc1ccccc1` [Compound E-71] returned a concentration for half-maximal inhibition (IC50) of over 25000 nM. For the same molecule, the “MLM (%)” value in data set [3] was determined as 67.2%.
In the same order, the values of `C=CCN1CC(=O)N2[C@@H](Cc3ccc(O)cc3)C(=O)N(Cc3cccc4c(C(=O)NCCCC(=O)O)cn(C)c34)C[C@@H]2N1C(=O)NCc1ccccc1` [Compound F-24] are over 25000 nM and 84.2%.
Molecule `C=CCN1CC(=O)N2[C@@H](Cc3ccc(O)cc3)C(=O)N(Cc3cccc4c(C(=O)Nc5ccc(N6CCCCC6)nc5)cn(C)c34)C[C@@H]2N1C(=O)NCc1ccccc1` [Compound G-35] gave a GI50 in data set [1] of 1.4 nM. This molecule came in with an IC50 in data set [2] of 12200 nM. Besides, the “MLM (%)” value in data set [3] amounted to 34.9%.
For `C=CCN1CC(=O)N2C(CN(Cc3cccc4c(C(=O)Nc5ccc(N6CCOCC6)nc5)cn(C)c34)C(=O)[C@@H]2Cc2ccc(O)cc2)N1C(=O)NCc1ccccc1` (stereo partly drawn) [Compound G-36], the GI50 in data set [1] turned out to be 1.3 nM. The molecule also gave a concentration for half-maximal inhibition (IC50) in data set [2] of 21100 nM. Besides, in data set [3], the “MLM (%)” value worked out at 36%.
The molecule `C=CCN1CC(=O)N2C(Cc3ccc(O)cc3)C(=O)N(Cc3cccc4c(C(=O)Nc5ccc(N6CCN(c7ccc(C(F)(F)F)cc7)CC6)nc5)cn(C)c34)CC2N1C(=O)NCc1ccccc1` (stereo not drawn) [Compound G-58] displayed an IC50 in data set [2] of 23700 nM. Further, the “MLM (%)” value in data set [3] is on record as 85.1%.
Regarding `C=CCN1CC(=O)N2C(Cc3ccc(O)cc3)C(=O)N(Cc3cccc4c(C(=O)Nc5ccc(N6CCN(c7ccccc7OC)CC6)nc5)cn(C)c34)CC2N1C(=O)NCc1ccccc1` (stereo not drawn) [Compound G-59], the GI50 in data set [1] is 4.9 nM. For the same molecule, the IC50 in data set [2] is over 25000 nM. For the same molecule, in data set [3], the “MLM (%)” value came out at 61.9%.
The molecule `C=CCN1CC(=O)N2C(Cc3ccc(O)cc3)C(=O)N(Cc3cccc4c(C(=O)Nc5ccc(N6CCN(Cc7ccc(OC)cc7)CC6)nc5)cn(C)c34)CC2N1C(=O)NCc1ccccc1` (stereo not drawn) [Compound G-60] had a GI50 in data set [1] of 6.5 nM. 21500 nM corresponded to half-maximal inhibition in data set [2] (IC50). In addition, in data set [3], the “MLM (%)” value is 52.8%.
Taken in the same sequence, the figures for `C=CCN1CC(=O)N2[C@@H](Cc3ccc(O)cc3)C(=O)N(Cc3cccc4c(-c5ccc(NC(=S)NC(=O)OCC)nc5)cn(C)c34)C[C@@H]2N1C(=O)NCc1ccccc1` [Compound H-4] were 15 nM, over 25000 nM and 66.8%.
Consider `C=CCN1CC(=O)N2[C@@H](Cc3ccc(O)cc3)C(=O)N(Cc3cccc4c(-c5ccc(NC(=S)NC(=O)c6ccccc6)nc5)cn(C)c34)C[C@@H]2N1C(=O)NCc1ccccc1` [Compound H-5], for which the IC50 in data set [2] was over 25000 nM. Besides, the “MLM (%)” value in data set [3] is 74%.
As for `C=CCN1CC(=O)N2[C@@H](Cc3ccc(O)cc3)C(=O)N(Cc3cccc4c(-c5cnc(N(C)C)nc5)cn(C)c34)C[C@@H]2N1C(=O)NCc1ccccc1` [Compound H-7], the GI50 in data set [1] stood at 1.5 nM. This molecule also yielded an IC50 in data set [2] of 6410 nM.
